Molecular target: RocR (Pseudomonas aeruginosa, UniProt Q9HX69)
Test: RocR intrinsic fluorescence change (Kd […] by two fits); also non-competitive enzyme inhibition, Ki […]
Type: binding

Sequence of RocR (Q9HX69 whole entry): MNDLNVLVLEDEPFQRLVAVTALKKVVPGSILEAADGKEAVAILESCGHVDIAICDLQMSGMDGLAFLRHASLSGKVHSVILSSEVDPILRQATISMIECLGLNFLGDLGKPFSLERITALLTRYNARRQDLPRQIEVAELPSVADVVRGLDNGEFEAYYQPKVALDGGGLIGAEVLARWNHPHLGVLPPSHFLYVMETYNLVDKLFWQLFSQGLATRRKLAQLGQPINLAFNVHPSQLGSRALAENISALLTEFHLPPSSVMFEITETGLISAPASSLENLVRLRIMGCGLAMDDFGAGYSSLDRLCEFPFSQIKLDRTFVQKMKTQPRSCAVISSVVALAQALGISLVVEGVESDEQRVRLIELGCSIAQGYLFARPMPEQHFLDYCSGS

O=C(CCCn1sc2ccccc2c1=O)Nc1ccc(O)cc1 [compound 1]
Kd: 14 ± 2 µM
